In brackets after ≈: the same amount, converted by molar mass.
Assays:
Candida albicans [1] = assay: Antifungal activity against Candida albicans SC5314 assessed as inhibition of fungal growth by NCCLS protocol based method; format: functional
Candida albicans [2] = assay: Antifungal activity against Candida albicans GIM2.194 assessed as inhibition of fungal growth by NCCLS protocol based method; format: functional
Candida albicans [3] = assay: Antifungal activity against fluconazole resistant Candida albicans CaR assessed as inhibition of fungal growth by NCCLS protocol based method; format: functional
Candida tropicalis = assay: Antifungal activity against Candida tropicalis GIM2.183 assessed as inhibition of fungal growth by NCCLS protocol based method; format: functional
[4] = AUC (0-infinity) in Sprague-Dawley rat at 2 mg/kg, iv measured after 24 hrs by LC-MS/MS analysis; format: ADME, organism-based; design: route intravenous, dose 2 mg/kg, time 24 hrs; conditions: in vivo
[5] = biological target: T1, Lanosterol 14-alpha demethylase (Candida albicans (strain SC5314 / ATCC MYA-2876) (Yeast), UniProt P10613); assay: Inhibition of Candida albicans CYP51 assessed as unknown sterol level at 0.015 ug/ml measured after 18 hrs by GC-MS analysis relative to control; design: scale not given: the % may be the effect or the level left; conditions: at 0.015 µg/mL
T1 sequence (P10613 whole entry): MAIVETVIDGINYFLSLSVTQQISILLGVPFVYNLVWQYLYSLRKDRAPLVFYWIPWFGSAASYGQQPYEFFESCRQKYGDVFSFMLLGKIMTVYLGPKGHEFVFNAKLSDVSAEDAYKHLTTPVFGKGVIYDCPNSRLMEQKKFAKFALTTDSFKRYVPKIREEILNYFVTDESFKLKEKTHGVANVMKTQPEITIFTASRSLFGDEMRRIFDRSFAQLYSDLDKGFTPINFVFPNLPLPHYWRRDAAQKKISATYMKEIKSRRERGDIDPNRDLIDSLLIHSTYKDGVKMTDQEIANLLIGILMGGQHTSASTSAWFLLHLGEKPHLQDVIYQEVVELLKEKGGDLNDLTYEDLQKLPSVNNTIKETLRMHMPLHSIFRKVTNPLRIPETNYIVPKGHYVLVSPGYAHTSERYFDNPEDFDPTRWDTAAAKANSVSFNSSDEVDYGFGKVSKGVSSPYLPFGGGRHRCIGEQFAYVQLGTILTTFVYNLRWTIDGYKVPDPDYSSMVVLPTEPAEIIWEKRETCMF

[6] = Intrinsic microsomal clearance in human liver microsomes at 100 uM in the presence of NADPH measured up to 60 mins by LC-MS/MS analysis; format: ADME, Microsome; conditions: read-out: CLH
[7] = Metabolic stability in human plasma assessed as parent compound remaining at 100 uM measured after 120 mins by LC-MS/MS analysis; format: ADME, cell-free; conditions: 2 h
[8] = Metabolic stability in human plasma assessed as half life at 100 uM measured after 60 mins by LC-MS/MS analysis; format: ADME, cell-free
Cytochrome P450 1A2 = biological target: T2, Cytochrome P450 1A2 (Homo sapiens, UniProt P05177); assay: Inhibition of CYP1A2 in human liver microsome incubated for 10 mins in the presence of NADPH by LC-MS/MS analysis; format: ADME, microsomes
T2 sequence (P05177 whole entry): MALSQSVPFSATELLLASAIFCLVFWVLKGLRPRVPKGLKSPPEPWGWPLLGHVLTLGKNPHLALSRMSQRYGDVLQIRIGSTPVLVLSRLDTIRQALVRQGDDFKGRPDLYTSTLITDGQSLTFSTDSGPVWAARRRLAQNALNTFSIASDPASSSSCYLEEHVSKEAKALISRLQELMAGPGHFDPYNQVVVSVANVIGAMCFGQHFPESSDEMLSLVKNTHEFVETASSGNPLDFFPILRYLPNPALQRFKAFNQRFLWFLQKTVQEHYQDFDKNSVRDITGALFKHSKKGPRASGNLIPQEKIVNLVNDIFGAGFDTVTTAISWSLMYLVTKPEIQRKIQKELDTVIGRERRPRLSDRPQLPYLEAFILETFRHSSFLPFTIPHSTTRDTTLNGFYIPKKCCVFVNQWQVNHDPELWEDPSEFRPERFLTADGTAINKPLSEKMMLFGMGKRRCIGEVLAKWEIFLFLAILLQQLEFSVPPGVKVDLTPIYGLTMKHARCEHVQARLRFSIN

[9] = biological target: T1, Lanosterol 14-alpha demethylase; assay: Inhibition of Candida albicans CYP51 assessed as eburicol level at 0.015 ug/ml measured after 18 hrs by GC-MS analysis relative to control; design: scale not given: the % may be the effect or the level left; conditions: at 0.015 µg/mL
[10] = Volume of distribution at steady state in Sprague-Dawley rat at 2 mg/kg, iv measured after 24 hrs by LC-MS/MS analysis; format: ADME, organism-based; conditions: in vivo, read-out: Vdss
Aspergillus fumigatus = assay: Antifungal activity against Aspergillus fumigatus CGMCC3.7795 assessed as inhibition of fungal growth by NCCLS protocol based method; format: functional
[11] = AUClast in Sprague-Dawley rat at 10 mg/kg, po measured after 24 hrs by LC-MS/MS analysis; format: ADME, organism-based; design: route oral, time 24 hrs, dose 10 mg/kg; conditions: in vivo
Cytochrome P450 2D6 = Cytochrome P450 2D6 (Homo sapiens, UniProt P10635); assay: Inhibition of CYP2D6 in human liver microsome incubated for 10 mins in the presence of NADPH by LC-MS/MS analysis; format: ADME, microsomes
Chain of Cytochrome P450 2D6 (P10635 whole entry): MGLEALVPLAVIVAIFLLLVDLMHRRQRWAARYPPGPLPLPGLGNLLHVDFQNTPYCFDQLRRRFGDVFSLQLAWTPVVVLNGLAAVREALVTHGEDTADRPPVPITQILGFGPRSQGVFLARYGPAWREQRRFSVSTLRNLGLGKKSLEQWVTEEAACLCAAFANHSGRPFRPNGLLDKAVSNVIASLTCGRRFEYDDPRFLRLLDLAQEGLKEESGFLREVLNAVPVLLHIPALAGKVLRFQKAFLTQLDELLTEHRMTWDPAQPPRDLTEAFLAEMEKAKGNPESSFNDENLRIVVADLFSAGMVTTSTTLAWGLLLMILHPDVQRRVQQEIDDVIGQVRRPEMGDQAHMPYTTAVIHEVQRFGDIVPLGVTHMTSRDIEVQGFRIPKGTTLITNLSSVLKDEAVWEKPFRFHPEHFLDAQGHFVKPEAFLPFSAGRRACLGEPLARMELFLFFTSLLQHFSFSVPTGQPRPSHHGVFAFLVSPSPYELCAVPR

Candida albicans [12] = assay: Antifungal activity against fluconazole and itraconazole resistant Candida albicans 17# assessed as inhibition of fungal growth by NCCLS protocol based method; format: functional
Cytochrome P450 2C19 = Cytochrome P450 2C19 (Homo sapiens, UniProt P33261); assay: Inhibition of CYP2C19 in human liver microsome incubated for 10 mins in the presence of NADPH by LC-MS/MS analysis; format: ADME, microsomes
Chain of Cytochrome P450 2C19 (P33261 whole entry): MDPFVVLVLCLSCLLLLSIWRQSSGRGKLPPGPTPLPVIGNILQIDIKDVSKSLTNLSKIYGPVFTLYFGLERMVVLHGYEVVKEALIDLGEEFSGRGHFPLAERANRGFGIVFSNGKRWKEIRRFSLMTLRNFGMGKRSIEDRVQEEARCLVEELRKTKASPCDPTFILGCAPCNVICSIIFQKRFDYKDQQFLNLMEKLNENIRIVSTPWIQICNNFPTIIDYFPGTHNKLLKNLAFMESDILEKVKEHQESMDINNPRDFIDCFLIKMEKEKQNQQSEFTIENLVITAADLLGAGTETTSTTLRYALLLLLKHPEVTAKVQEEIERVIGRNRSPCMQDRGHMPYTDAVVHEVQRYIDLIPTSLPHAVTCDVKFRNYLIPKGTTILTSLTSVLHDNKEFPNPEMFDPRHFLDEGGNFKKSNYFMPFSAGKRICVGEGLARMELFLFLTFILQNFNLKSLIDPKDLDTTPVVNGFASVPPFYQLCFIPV

[13] = Metabolic stability in human plasma assessed as parent compound remaining at 100 uM measured after 60 mins by LC-MS/MS analysis; format: ADME, cell-free; conditions: read-out: Stabilty
[14] = Metabolic stability in human liver microsomes assessed as compound remaining at 100 uM measured after 60 mins in the absence of NADPH by LC-MS/MS analysis; format: ADME, Microsome; conditions: read-out: Stabilty
Candida parapsilosis = assay: Antifungal activity against Candida parapsilosis GIM2.190 assessed as inhibition of fungal growth by NCCLS protocol based method; format: functional; conditions: Lodderomyces parapsilosis
[15] = Initial plasma concentration in Sprague-Dawley rat at 2 mg/kg, iv by LC-MS/MS analysis; format: ADME, organism-based
[16] = Tmax in Sprague-Dawley rat at 10 mg/kg, po measured up to 24 hrs by LC-MS/MS analysis; format: ADME, organism-based; conditions: in vivo
Pichia kudriavzevii = assay: Antifungal activity against Candida krusei GIM2.1 assessed as inhibition of fungal growth by NCCLS protocol based method; format: functional
Cytochrome P450 3A4 = Cytochrome P450 3A4 (Homo sapiens, UniProt P08684); assay: Inhibition of CYP3A4 in human liver microsome incubated for 10 mins in the presence of NADPH by LC-MS/MS analysis; format: ADME, microsomes
Chain of Cytochrome P450 3A4 (P08684 whole entry): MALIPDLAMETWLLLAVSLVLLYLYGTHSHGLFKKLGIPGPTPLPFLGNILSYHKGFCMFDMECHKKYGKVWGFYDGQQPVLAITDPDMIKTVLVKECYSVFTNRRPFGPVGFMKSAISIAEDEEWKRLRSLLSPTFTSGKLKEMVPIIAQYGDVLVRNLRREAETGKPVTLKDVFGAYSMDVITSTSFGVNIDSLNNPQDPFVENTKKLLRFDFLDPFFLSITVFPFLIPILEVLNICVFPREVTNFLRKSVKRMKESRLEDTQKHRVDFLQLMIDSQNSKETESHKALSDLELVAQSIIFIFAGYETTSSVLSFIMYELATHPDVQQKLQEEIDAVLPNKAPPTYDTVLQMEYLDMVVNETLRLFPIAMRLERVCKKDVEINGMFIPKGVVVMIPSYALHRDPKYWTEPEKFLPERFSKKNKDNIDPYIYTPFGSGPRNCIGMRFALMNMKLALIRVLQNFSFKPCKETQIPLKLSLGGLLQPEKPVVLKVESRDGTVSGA

[17] = biological target: T1, Lanosterol 14-alpha demethylase; assay: Inhibition of Candida albicans CYP51 assessed as lanosterol level at 0.015 ug/ml measured after 18 hrs by GC-MS analysis relative to control; design: scale not given: the % may be the effect or the level left; conditions: at 0.015 µg/mL
[18] = biological target: T1, Lanosterol 14-alpha demethylase; assay: Inhibition of Candida albicans CYP51 assessed as 14alpha-methylergosta-8,24(28)-dien3beta-6alpha-diol level at 0.015 ug/ml measured after 18 hrs by GC-MS analysis relative to control; design: scale not given: the % may be the effect or the level left; conditions: at 0.015 µg/mL
[19] = Metabolic stability in human liver microsomes assessed as compound remaining at 100 uM measured after 60 mins in the presence of NADPH by LC-MS/MS analysis; format: ADME, Microsome; conditions: read-out: Stabilty
[20] = Clearance in Sprague-Dawley rat at 2 mg/kg, iv measured after 24 hrs by LC-MS/MS analysis; format: ADME, organism-based; conditions: in vivo
[21] = biological target: T1, Lanosterol 14-alpha demethylase; assay: Inhibition of Candida albicans CYP51 assessed as ergosterol level at 0.015 ug/ml measured after 18 hrs by GC-MS analysis relative to control; design: scale not given: the % may be the effect or the level left; conditions: at 0.015 µg/mL
[22] = Oral bioavailability in Sprague-Dawley rat at 10 mg/kg measured after 24 hrs by LC-MS/MS analysis; format: ADME, organism-based; conditions: in vivo
Cytochrome P450 2C9 = Cytochrome P450 2C9 (Homo sapiens, UniProt P11712); assay: Inhibition of CYP2C9 in human liver microsome incubated for 10 mins in the presence of NADPH by LC-MS/MS analysis; format: ADME, microsomes
Chain of Cytochrome P450 2C9 (P11712 whole entry): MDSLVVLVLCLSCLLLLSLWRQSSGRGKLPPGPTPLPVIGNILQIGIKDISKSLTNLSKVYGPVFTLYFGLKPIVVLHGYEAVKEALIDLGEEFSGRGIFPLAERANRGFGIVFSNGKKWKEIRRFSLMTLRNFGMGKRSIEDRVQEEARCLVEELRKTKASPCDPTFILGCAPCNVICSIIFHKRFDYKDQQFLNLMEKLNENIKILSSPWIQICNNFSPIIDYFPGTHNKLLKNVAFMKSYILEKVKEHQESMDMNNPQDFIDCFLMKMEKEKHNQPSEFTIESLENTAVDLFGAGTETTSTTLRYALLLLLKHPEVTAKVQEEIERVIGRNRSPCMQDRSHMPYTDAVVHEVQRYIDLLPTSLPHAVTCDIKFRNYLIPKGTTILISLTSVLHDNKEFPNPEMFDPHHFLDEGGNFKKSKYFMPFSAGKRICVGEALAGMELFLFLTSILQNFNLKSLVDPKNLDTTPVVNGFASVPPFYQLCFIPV

[23] = AUClast in Sprague-Dawley rat at 2 mg/kg, iv measured after 24 hrs by LC-MS/MS analysis; format: ADME, organism-based; design: route intravenous, dose 2 mg/kg, time 24 hrs; conditions: in vivo
[24] = Half life in Sprague-Dawley rat at 2 mg/kg, iv measured up to 24 hrs by LC-MS/MS analysis; format: ADME, organism-based; conditions: in vivo
[25] = Cmax in Sprague-Dawley rat at 10 mg/kg, po measured up to 24 hrs by LC-MS/MS analysis; format: ADME, organism-based; design: route oral, dose 10 mg/kg, time <=24; conditions: in vivo
[26] = Metabolic stability in human liver microsomes assessed as half life at 100 uM in the presence of NADPH measured upto 60 mins by LC-MS/MS analysis; format: ADME, Microsome
Cryptococcus neoformans = assay: Antifungal activity against Cryptococcus neoformans GIM2.209 assessed as inhibition of fungal growth by NCCLS protocol based method; format: functional

Fc1ccc(C2(Cn3cncn3)COC(c3ccc(-c4ccccc4F)cc3)=N2)cc1 (stereo not given)
MIC (Candida albicans [1]): < 0.03 µg/mL | MIC (Candida albicans [2]): < 0.03 µg/mL | MIC (Candida albicans [3]): 0.25 µg/mL (≈ 0.6 µM) | MIC (Candida tropicalis): 0.06 µg/mL (≈ 0.144 µM) | AUC(0-inf) [4]: 3130 ng·h/mL | Activity [5]: 1.97% | microsomal CLint at 100 µM [6]: < 9.6 µL/min/mg | Stabilty [7]: 120.4% | half-life at 100 µM [8]: > 4.8 h | IC50 (Cytochrome P450 1A2): 6.64 µM | Activity [9]: 5.08% | Vd [10]: 7.18 L/kg | MIC (Aspergillus fumigatus): > 64 µg/mL | AUC(0-t) at 24 h [11]: 10400 ng·h/mL | IC50 (Cytochrome P450 2D6): > 50 µM | MIC (Candida albicans [12]): > 64 µg/mL | IC50 (Cytochrome P450 2C19): 1.56 µM | remaining at 1 h, 100 µM [13]: 95.3% | remaining at 1 h, 100 µM [14]: 89.6% | MIC (Candida parapsilosis): 8 µg/mL (≈ 19.2 µM) | C0 [15]: 758 ng/mL | Tmax [16]: 5.33 h | MIC (Pichia kudriavzevii): 0.25 µg/mL (≈ 0.6 µM) | IC50 (Cytochrome P450 3A4): 14.8 µM | Activity [17]: 18.89% | Activity [18]: 32.74% | remaining at 1 h, 100 µM [19]: 75.4% | clearance [20]: 10.8 mL/min/kg | Activity [21]: 38.82% | bioavailability [22]: 77.7% | IC50 (Cytochrome P450 2C9): 2.3 µM | AUC(0-t) at 24 h [23]: 2690 ng·h/mL | half-life [24]: 9.35 h | Cmax [25]: 754 ng/mL | half-life at 100 µM [26]: > 2.42 h

c1ccc(-c2ccc(C3=NC(Cn4ccnc4)(c4ccccc4)CO3)cc2)cc1 (stereo not given)
MIC (Candida albicans [1]): < 0.125 µg/mL | MIC (Candida albicans [2]): < 0.125 µg/mL | MIC (Candida tropicalis): < 0.125 µg/mL | MIC (Aspergillus fumigatus): 1 µg/mL (≈ 2.64 µM) | MIC (Cryptococcus neoformans): 32 µg/mL (≈ 84.3 µM) | half-life at 100 µM [26]: 1.77 h

Fc1cccc(C2(Cn3cncn3)COC(c3ccc(-c4ccccc4F)cc3)=N2)c1 (stereo not given)
MIC (Candida albicans [1]): 0.06 µg/mL (≈ 0.144 µM) | MIC (Candida albicans [2]): 0.06 µg/mL (≈ 0.144 µM) | MIC (Candida albicans [3]): > 64 µg/mL | MIC (Candida tropicalis): 0.25 µg/mL (≈ 0.6 µM) | MIC (Aspergillus fumigatus): > 64 µg/mL | MIC (Candida albicans [12]): > 64 µg/mL | MIC (Candida parapsilosis): > 64 µg/mL | MIC (Pichia kudriavzevii): > 64 µg/mL

Fc1cccc(-c2ccc(C3=NC(Cn4cncn4)(c4ccc(Cl)cc4)CO3)cc2)c1 (stereo not given)
MIC (Candida albicans [1]): < 0.03 µg/mL | MIC (Candida albicans [2]): < 0.03 µg/mL | MIC (Candida albicans [3]): 0.25 µg/mL (≈ 0.578 µM) | MIC (Candida tropicalis): 0.06 µg/mL (≈ 0.139 µM) | MIC (Aspergillus fumigatus): > 64 µg/mL | MIC (Candida albicans [12]): > 64 µg/mL | MIC (Candida parapsilosis): 4 µg/mL (≈ 9.24 µM) | MIC (Pichia kudriavzevii): 0.25 µg/mL (≈ 0.578 µM)

Fc1cccc(-c2ccc(C3=NC(Cn4cncn4)(c4ccc(F)cc4F)CO3)cc2)c1 (stereo not given)
MIC (Candida albicans [1]): < 0.03 µg/mL | MIC (Candida albicans [2]): 0.06 µg/mL (≈ 0.138 µM) | MIC (Candida albicans [3]): 0.5 µg/mL (≈ 1.15 µM) | MIC (Candida tropicalis): 0.06 µg/mL (≈ 0.138 µM) | MIC (Aspergillus fumigatus): > 64 µg/mL | MIC (Candida albicans [12]): > 64 µg/mL | MIC (Candida parapsilosis): > 64 µg/mL | MIC (Pichia kudriavzevii): 0.25 µg/mL (≈ 0.575 µM)

— ChEMBL document CHEMBL4842346, “Improving the metabolic stability of antifungal compounds based on a scaffold hopping strategy: Design, synthesis, and structure-activity relationship studies of dihydrooxazole derivatives” (Eur J Med Chem, 2021)
